Test results as given in patent US11643421B2, “Process for the preparation of tricyclic PI3K inhibitor compounds and methods for using the same for the treatment of cancer” (priority 2015, dated 2023).
Where two headings read alike, the source gives them in different places.

How the values were obtained:
pAKT [1] = test: pAKT/total AKT in U87 MG/M xenograft tumors; format: in vivo, mice; conditions: 0.5, 3, 10, 18 mg/kg, 24 days continuous dosing, 1 hour and 4 hours post dose
Protocol: The effect of compound IIIat on the pharmacodynamics (PD) marker pAKT in the U87 MG/M human glioblastoma xenograft model after 24 days of continuous dosing at dosage rates of 0.5 mg/kg, 3 mg/kg, 10 mg/kg and 18 mg/kg was evaluated. Tumors were excised from animals 1 hour and 4 hours after the last administered dose on day 24 and processed for analysis of pAKT and total AKT. The results are reported in FIG. 4 as a ratio of pAKT to total AKT wherein indicated values are the means for groups of 3 animals and error bars indicate ±standard error of the mean. Levels of pAKT^Ser473 and total AKT were measured by electrochemiluminescence using Meso Scale Discovery according to manufacturer's instructions (Gaithersburg, Md.).

[2] = Hepatocyte stability, predicted hepatic clearance; format: in vitro ADME, cynomolgus monkeys; conditions: Cyno hepatocytes, in vitro t1/2 method
Protocol: (§1) The hepatocyte stability of compound IIIat was evaluated across preclinical species. Certain in vivo pharmacokinetic parameters were also evaluated. […] Male Sprague-Dawley rats, female CD-1 mice, male cynomolgus monkeys and beagle dogs were dosed intravenously with 1 mg/kg of compound IIIat prepared in 60% PEG400/10% Ethanol. Compound IIIat was administered orally (PO) at the indicated dose in 0.5% methylcellulose with 0.2% Tween 80 (MCT).

[3] = In vivo pharmacokinetics IV and PO; design: species or system female CD-1 mice; conditions: Mouse
Protocol: as §1

[4] = Phase I dose-escalation study, maximum tolerable dose; conditions: orally once daily in cycles of 28 days
Protocol: Plasma samples for pharmacokinetic (“PK”) analysis were collected on day 1 and day 8 or day 15 of cycle 1. Fluorodeoxyglucose positron emission tomography (“FDG-PET”) was performed at baseline and on-treatment.

pAKT [5] = test: Modulation of pAkt in the brain of healthy mice; format: in vivo, Female CD-1 mice; conditions: single oral dose 25 mg/kg
Protocol: (§2) Inhibition of the PI3K pathway was assessed in the brain of healthy mice through measurement of two markers, pAkt and pS6. […] Brains and plasma were collected at 1 and 6 hours post-dose, from 3 animals at each time point. […] For PD analysis, cell extraction buffer (Invitrogen, Camarillo, Calif.) containing 10 mM Tris pH 7.4, 100 mM NaCl, 1 mM EDTA, 1 mM EGTA, 1 mM NaF, 20 mM Na4P2O7, 2 mM Na3VO4, 1% Triton X-100, 10% glycerol, 0.1% SDS, and 0.5% deoxycholate was supplemented with phosphatase, protease inhibitors (Sigma, St. Louis, Mo.) and 1 mM PMSF and added to frozen brain biopsies. Brains were homogenized with a small pestle (Konte Glass Company, Vineland, N.J.), sonicated briefly on ice, and centrifuged at 20,000 g for 20 minutes at 4° C. Protein concentration was determined using BCA protein assay (Pierce, Rockford, Ill.). Proteins were separated by electrophoresis and transferred to NuPage nitrocellulose membranes (Invitrogen, Camarillo, Calif.). Licor Odyssey Infrared detection system (Licor, Lincoln, Nebr.) was used to assess and quantify protein expression. […] The differences in marker levels between the treated and control mice were evaluated using the Student's t-test (Prism 5, GraphPad).

pS6 = test: Modulation of pS6 in the brain of healthy mice; format: in vivo, Female CD-1 mice; conditions: single oral dose 25 mg/kg
Protocol: as §2

[6] = Plasma and brain concentrations in GS2 tumor-bearing mice; format: in vivo; conditions: mouse, 15 mg/kg PO; for concentration at 2 h: 2 h post-dose; for concentration at 8 h: 8 h post-dose
TAO1 = test: Kinase panel; format: biochemical; conditions: TAO1, 1 μM
CDK9/cyclinT1 = CDK9/cyclinT1 (Homo sapiens, UniProt P50750); test: biochemical; conditions: read-out: % inhib
CLK1 = CLK1 (Homo sapiens, UniProt P49759); test: biochemical; conditions: read-out: % inhib
CLK1, sequence (P49759 whole entry): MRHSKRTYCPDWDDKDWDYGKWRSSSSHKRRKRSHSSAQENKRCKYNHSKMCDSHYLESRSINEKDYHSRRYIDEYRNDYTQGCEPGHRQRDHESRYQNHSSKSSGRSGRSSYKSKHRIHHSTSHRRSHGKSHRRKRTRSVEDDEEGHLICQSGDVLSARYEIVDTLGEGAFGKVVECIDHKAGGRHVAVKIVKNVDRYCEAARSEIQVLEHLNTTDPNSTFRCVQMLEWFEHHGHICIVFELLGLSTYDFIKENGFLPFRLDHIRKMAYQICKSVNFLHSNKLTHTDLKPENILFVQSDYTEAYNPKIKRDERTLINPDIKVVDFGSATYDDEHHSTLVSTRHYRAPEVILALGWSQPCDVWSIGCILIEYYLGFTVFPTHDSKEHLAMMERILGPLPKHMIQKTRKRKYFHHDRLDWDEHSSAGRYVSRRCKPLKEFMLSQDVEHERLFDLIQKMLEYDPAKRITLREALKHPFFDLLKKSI

CLK3 = CLK3 (Homo sapiens, UniProt P49761); test: biochemical; conditions: read-out: % inhib
CLK3, sequence (P49761 whole entry, species assumed): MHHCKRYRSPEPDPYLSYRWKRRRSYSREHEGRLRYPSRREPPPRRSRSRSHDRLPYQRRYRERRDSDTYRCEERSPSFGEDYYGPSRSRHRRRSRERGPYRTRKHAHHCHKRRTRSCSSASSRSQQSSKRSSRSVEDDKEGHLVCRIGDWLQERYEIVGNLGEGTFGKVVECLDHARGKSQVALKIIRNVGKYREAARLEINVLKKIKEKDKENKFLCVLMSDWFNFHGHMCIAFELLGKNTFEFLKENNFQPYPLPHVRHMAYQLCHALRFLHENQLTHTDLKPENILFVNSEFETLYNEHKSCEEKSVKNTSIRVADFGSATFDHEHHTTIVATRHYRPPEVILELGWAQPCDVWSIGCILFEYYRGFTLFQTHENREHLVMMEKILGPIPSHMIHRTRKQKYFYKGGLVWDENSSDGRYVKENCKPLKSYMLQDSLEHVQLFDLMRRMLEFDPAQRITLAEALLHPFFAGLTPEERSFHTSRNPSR

CSK = CSK (Homo sapiens, UniProt P41240); test: biochemical; conditions: read-out: % inhib
CSK, sequence (P41240 whole entry, species assumed): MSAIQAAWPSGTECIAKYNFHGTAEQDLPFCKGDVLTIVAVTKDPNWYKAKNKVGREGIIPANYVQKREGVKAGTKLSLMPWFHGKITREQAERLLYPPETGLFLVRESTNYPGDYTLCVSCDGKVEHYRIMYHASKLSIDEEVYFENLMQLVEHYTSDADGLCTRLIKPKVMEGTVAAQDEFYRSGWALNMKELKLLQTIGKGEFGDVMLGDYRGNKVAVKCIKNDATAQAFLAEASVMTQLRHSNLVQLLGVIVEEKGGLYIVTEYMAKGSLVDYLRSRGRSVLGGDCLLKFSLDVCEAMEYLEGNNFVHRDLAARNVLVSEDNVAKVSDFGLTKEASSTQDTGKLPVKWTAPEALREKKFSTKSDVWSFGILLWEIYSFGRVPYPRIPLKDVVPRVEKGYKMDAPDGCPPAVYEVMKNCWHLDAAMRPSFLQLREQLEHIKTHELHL

ErbB4 = ErbB4 (Homo sapiens, UniProt Q15303); test: biochemical; conditions: read-out: % inhib
Frk = Frk (Homo sapiens, UniProt P42685); test: biochemical; conditions: read-out: % inhib
Frk, sequence (P42685 whole entry): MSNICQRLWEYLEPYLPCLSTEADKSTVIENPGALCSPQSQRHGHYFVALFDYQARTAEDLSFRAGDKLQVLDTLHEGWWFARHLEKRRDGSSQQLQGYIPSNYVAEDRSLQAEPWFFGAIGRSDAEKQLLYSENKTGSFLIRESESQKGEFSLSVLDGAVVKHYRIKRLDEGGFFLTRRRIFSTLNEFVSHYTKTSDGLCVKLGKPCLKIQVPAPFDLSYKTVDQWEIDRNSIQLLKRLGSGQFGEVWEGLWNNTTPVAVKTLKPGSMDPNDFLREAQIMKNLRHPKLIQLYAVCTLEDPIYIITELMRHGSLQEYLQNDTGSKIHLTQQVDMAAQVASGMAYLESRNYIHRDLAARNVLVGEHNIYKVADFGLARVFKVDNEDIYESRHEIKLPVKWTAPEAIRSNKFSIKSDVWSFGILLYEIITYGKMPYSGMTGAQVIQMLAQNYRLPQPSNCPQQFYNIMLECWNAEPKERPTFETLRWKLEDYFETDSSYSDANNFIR

Fyn = Fyn (Homo sapiens, UniProt P06241); test: biochemical; conditions: read-out: % inhib
GSK3_beta = GSK3_beta (Homo sapiens, UniProt P49841); test: biochemical; conditions: read-out: % inhib
GSK3_beta, sequence (P49841 whole entry, species assumed): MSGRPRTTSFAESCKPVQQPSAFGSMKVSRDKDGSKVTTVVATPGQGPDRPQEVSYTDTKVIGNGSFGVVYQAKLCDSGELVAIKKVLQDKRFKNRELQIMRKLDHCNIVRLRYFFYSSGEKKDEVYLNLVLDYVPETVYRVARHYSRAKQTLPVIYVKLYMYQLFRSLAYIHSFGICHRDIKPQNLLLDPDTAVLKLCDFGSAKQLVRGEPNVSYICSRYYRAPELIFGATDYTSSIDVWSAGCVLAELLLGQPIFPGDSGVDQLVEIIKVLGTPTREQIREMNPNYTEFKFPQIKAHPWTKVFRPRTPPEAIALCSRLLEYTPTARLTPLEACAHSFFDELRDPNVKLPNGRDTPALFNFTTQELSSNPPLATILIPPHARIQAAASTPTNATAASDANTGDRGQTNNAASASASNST

MSK2 = MSK2 (Homo sapiens, UniProt O75676); test: biochemical; conditions: read-out: % inhib
MST1 = MST1 (Homo sapiens, UniProt Q13043); test: biochemical; conditions: read-out: % inhib
MST2 = MST2 (Homo sapiens, UniProt Q13188); test: biochemical; conditions: read-out: % inhib
MST2, sequence (Q13188 whole entry, species assumed): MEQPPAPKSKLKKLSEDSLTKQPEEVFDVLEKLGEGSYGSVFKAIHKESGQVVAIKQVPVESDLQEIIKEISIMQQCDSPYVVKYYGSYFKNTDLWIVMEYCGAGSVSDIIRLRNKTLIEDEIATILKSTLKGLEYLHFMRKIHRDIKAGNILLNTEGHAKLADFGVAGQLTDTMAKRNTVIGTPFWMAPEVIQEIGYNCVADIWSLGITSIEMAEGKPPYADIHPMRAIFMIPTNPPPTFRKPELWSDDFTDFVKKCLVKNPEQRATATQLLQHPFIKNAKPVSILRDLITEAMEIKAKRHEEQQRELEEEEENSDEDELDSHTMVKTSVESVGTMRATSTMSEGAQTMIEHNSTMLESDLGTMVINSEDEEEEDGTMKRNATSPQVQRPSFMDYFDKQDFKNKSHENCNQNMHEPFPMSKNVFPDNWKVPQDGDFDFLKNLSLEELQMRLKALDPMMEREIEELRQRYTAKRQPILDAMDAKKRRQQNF

MYLK2 (skMLCK) = MYLK2 (skMLCK) (Homo sapiens, UniProt Q9H1R3); test: biochemical; conditions: read-out: % inhib
NEK7 = NEK7 (Homo sapiens, UniProt Q8TDX7); test: biochemical; conditions: read-out: % inhib
PAK2 = PAK2 (Homo sapiens, UniProt Q13177); test: biochemical; conditions: read-out: % inhib
PI4Ka = PI4Ka (Homo sapiens, UniProt P42356); test: biochemical; conditions: read-out: % inhib
PI4Ka, sequence (P42356 whole entry): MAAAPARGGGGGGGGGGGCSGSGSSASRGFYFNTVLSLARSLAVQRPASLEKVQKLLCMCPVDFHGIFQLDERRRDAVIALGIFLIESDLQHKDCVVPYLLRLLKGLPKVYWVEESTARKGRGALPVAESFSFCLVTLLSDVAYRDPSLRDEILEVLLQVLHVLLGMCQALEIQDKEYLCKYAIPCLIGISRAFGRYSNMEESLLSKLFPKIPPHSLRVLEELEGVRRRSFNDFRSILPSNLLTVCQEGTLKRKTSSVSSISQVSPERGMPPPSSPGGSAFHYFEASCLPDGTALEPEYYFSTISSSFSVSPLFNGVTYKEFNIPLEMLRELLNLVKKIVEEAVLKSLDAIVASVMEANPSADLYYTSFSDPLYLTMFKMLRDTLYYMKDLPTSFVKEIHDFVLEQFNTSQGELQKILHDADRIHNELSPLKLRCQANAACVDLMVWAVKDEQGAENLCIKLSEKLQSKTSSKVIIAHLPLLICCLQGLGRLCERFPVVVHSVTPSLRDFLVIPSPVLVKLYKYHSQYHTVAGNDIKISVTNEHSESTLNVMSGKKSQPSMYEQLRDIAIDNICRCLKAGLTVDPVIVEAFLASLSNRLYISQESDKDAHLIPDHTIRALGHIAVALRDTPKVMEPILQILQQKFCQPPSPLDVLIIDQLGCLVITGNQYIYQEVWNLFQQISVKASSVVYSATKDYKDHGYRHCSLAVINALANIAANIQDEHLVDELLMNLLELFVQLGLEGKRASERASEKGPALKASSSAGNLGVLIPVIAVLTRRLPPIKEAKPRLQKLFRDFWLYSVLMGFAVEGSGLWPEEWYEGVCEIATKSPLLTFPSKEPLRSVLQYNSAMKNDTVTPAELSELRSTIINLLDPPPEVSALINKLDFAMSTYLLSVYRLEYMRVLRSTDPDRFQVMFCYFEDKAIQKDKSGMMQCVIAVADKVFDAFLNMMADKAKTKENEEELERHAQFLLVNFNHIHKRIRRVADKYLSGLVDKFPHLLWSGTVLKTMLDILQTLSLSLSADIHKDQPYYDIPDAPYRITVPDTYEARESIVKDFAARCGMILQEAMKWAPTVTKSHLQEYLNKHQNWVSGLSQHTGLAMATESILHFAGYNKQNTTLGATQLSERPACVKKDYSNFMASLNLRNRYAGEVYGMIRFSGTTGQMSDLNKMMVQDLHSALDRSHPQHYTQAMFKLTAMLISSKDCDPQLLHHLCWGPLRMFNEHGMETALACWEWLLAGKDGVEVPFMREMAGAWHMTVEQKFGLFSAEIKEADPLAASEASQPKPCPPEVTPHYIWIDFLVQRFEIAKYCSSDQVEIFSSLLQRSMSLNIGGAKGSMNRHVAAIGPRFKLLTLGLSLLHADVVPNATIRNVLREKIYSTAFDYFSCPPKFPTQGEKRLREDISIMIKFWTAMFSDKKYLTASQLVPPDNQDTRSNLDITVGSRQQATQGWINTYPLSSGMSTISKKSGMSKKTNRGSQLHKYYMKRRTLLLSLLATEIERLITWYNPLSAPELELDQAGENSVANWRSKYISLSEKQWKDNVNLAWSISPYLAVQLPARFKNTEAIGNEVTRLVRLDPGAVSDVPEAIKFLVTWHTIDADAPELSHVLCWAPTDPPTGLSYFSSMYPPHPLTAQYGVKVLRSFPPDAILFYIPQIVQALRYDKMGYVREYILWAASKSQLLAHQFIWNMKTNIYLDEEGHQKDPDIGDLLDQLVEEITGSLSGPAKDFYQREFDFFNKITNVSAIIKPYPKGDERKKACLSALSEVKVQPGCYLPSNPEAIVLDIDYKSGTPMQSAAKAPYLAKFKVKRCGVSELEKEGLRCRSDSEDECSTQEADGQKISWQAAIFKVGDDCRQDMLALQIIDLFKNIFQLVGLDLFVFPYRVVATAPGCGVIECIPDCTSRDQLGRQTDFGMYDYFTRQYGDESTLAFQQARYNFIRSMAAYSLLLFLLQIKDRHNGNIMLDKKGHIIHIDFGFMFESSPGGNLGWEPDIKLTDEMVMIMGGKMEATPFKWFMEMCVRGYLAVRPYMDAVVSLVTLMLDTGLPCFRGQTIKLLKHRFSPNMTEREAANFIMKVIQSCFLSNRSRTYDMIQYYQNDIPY

PKC_eta = PKC_eta (Homo sapiens, UniProt P24723); test: biochemical; conditions: read-out: % inhib
[7] = non-tumored half of the brain, read-out: Brain

Compound: CC1(C)OCCn2c1nc1c(N3CCOCC3)nc(-c3cnc(N)nc3)nc12 [GDC-0084, 5-(6,6-dimethyl-4-morpholino-8,9-dihydro-6H-[1,4]oxazino[3,4-e]purin-2-yl)pyrimidin-2-amine]
- inhibition of pAKT (pAKT/total AKT) in U87 tumors (pAKT [1]): Dose and concentration dependent inhibition of pAKT
- Clhep [2]: 26 mL/min/kg
- In vivo Cl ([3]; IV 1 mg/kg): 17 mL/min/kg
- AUC ([3]; PO 25 mg/kg in MCT): 47 μm·h
- Cmax ([3]; PO 25 mg/kg in MCT): 4.6 μm
- F % ([3]; PO 25 mg/kg in MCT): 75%
- MTD [4]: 45 mg
- Suppression of pAkt in brain (pAKT [5]; 1 hour post dose): 90%
- Suppression of pAkt in brain (pAKT [5]; 6 hours after dosing): greater than 70%
- Suppression of pS6 in brain (pS6; 1 hour post dose): 90%
- Suppression of pS6 in brain (pS6; 6 hours after dosing): greater than 70%
- concentration at 2 h ([6]; plasma, read-out: Plasma): 3.64 ± 2.05 µM
- concentration at 8 h ([6]; plasma, read-out: Plasma): 2.01 ± 1.19 µM
- concentration at 2 h [6, 7]: 5.51 ± 1.58 µM
- concentration at 8 h [6, 7]: 2.48 ± 1.25 µM
- % inhib (TAO1): −1.3%
- inhibition at 1 µM (CDK9/cyclinT1): -0.9%
- inhibition at 1 µM (CLK1): 4%
- inhibition at 1 µM (CLK3): 7%
- inhibition at 1 µM (CSK): 10%
- inhibition at 1 µM (ErbB4): 7%
- inhibition at 1 µM (Frk): 8%
- inhibition at 1 µM (Fyn): 9%
- inhibition at 1 µM (GSK3_beta): 1%
- inhibition at 1 µM (MSK2): 0.6%
- inhibition at 1 µM (MST1): 5%
- inhibition at 1 µM (MST2): -2%
- inhibition at 1 µM (MYLK2 (skMLCK)): 3%
- inhibition at 1 µM (NEK7): -0.3%
- inhibition at 1 µM (PAK2): 3%
- inhibition at 1 µM (PI4Ka): 7%
- inhibition at 1 µM (PKC_eta): -9%
